According to patent publication US20130131161A1, “METHODS AND COMPOSITIONS FOR CARDIOVASCULAR DISEASES AND CONDITIONS” (priority 2009, published 2013):

Test system: Human umbilical vein endothelial cells (HUVECs)
Assay: eNOS activity analysis: NO, ONOO− and NO/ONOO− release from HUVECs of 50 genotyped donors in response to LA-419 (Example 2)
Format: cell-based
Conditions: for Net increase over control ONOO− (mean ± sd) / Peak release NO (mean ± sd) / Peak release NO/ONOO− (mean ± sd) / Peak release ONOO− (mean ± sd) / Net increase over control NO (mean ± sd) / Net increase over control NO/ONOO− (mean ± sd) / % Change Ratio, % Change NO/% Change ONOO− (mean ± sd): LA-419 1 μM; for % Change NO (mean ± sd) / % Change NO/ONOO− (mean ± sd) / % Change ONOO− (mean ± sd): LA-419 5 μM vs control
Experimental: Concurrent measurements of NO and ONOO^− were carried out with tandem electrochemical nanosensors combined into one working unit with a total diameter of 200-500 nm (FIG. 1). Their design was based on previously developed and well-characterized chemically modified carbon-fiber technology (Malinski and Taha, 1992; Lvovich and Scheeline, 1997). Each of the nanosensors was made by depositing a sensing material on the tip of a carbon fiber (length 4-5 μm, diameter 0.2-0.5 μm). The fibers were sealed with nonconductive epoxy and electrically connected to copper wires with conductive silver epoxy. A conductive film of polymeric nickel (II) tetrakis(3-methoxy-4-hydroxyphenyl)porphyrin for the NO-sensor and polymeric film of Mn (III) [2.2]paracyclophanylporphyrin was used for the ONOO^−-sensor.
A module of NO/ONOO^− nanosensors (diameter 1-2 μm) with a platinum wire (0.1 mm) counter electrode and saturated calomel reference electrode (SCE) were applied. Differential pulse voltammetry (DPV) and amperometry were performed with a computer-based Gamry VFP600 multichannel potentiostat. DPV was used to measure the basal NO and ONOO^− concentrations, and amperometry was used to measure changes in NO and ONOO^− concentrations from its basal level with time. The DPV current at the peak potential characteristic for NO oxidation (0.65 V) and ONOO^− reduction (−0.45 V) was directly proportional to the local concentrations of these compounds in the immediate vicinity of the sensor. Linear calibration curves (current vs. concentration) were constructed for each sensor from 10 nM to 3 μM before and after measurements with aliquots of NO and ONOO^− standard solutions, respectively. The detection limit of the sensors was 1.0 nM.
The quantification of each analyte (concentration in nM) was performed using a maximum current from amperograms and standard calibration curves. A reproducibility of measurements with nanosensors is relatively high (between 5-12%). […] The sensors were slowly raised 5±2 μm from the surface of a single endothelial cell. The eNOS agonist, calcium ionophore A23187 (CaI) as well as the different drugs were then added to the surrounding media at the cell surface with a nanoinjector that was also positioned by a computer controlled-micromanipulator.
This example describes the genotype-specific response of the three major eNOS variants to 1 μM and 5 μM concentrations of LA-419. The three major genetic polymorphisms studied were the Glu298Asp variant (E298D or 894G→T) in exon 7 of […], the −786T→C variant in the promoter region, and the intron 4 polymorphism (VNTR). All of these variants have possible effects on the cardiovascular system and endothelial dysfunction. For this study, human umbilical vein endothelial cells (HUVECs) from 50 donors between 18 and 32 years of age were used.
For the analysis several analysis techniques were employed. First, the effect of genotype on NO and ONOO^− release was explored within the different concentrations of LA-419 (control, 1 μM, 5 μM), calculated as the average peak release (nmols/L) of NO, ONOO^−, and NO/ONOO^−. The effect of genotype on the net increase in NO, ONOO^−, and NO/ONOO^− for LA-419 (1 μM and 5 μM) as compared to control was also measured. In addition, an analysis was done on the effect of genotype on the % change in NO, ONOO^−, and NO/ONOO^− production for LA-419 (1 μM and 5 μM), calculated as:
% Change=[(avg. LA-419−avg. control)/(avg. control)]*100
Finally, an evaluation was undertaken concerning the effect of genotype on the production of NO, ONOO^−, and NO/ONOO^− as the fold difference of control for LA-419 (1 μM and 5 μM), calculated as:
Fold Difference=(avg. LA-419)/(avg. control)
Within each calculation technique the results were compared for statistical significance using a non-parametric ANOVA Kruskal-Wallace test or a non-parametric Mann-Whitney U test. Statistical significance was set at a p-value <0.05 in a two-tailed distribution. […]

[1] = HUVECs Intron 4 variant b/a, a/a, c/c
[2] = HUVECs T-786C variant T/C & C/C
[3] = HUVEC donor Race Caucasian/Black

## CC(=O)SC1COC2C(O[N+](=O)[O-])COC12 (stereo not drawn) [LA-419, S-(6-Nitro-oxi-hexahydro-furo[3,2-b]furan-3-1-il)thioacetate]
HUVECs Intron 4 variant b/a
  Net increase over control ONOO− (mean ± sd): −37.57 (99.15) nmols/L
  Peak release NO (mean ± sd): 377.23 (69.05) nmols/L
  Peak release NO/ONOO− (mean ± sd): 1.25 (0.46)
  Peak release ONOO− (mean ± sd): 330.47 (88.93) nmols/L
  % Change NO (mean ± sd): 16.81 (6.88) %
  % Change NO/ONOO− (mean ± sd): 45.81 (14.36) %
[1]
  Net increase over control NO (mean ± sd): 27.83 (86.07) nmols/L
  Net increase over control NO/ONOO− (mean ± sd): 0.16 (0.46)
  Net increase over control ONOO− (mean ± sd): −21.43 (98.29) nmols/L
  Peak release NO (mean ± sd): 366.00 (71.50) nmols/L
  Peak release NO/ONOO− (mean ± sd): 1.15 (0.48)
  Peak release ONOO− (mean ± sd): 356.55 (98.40) nmols/L
HUVECs Intron 4 variant b/b
  Net increase over control NO (mean ± sd): 39.66 (70.27) nmols/L
  Net increase over control NO/ONOO− (mean ± sd): 0.29 (0.47)
  Net increase over control ONOO− (mean ± sd): −51.71 (108.03) nmols/L
  Peak release NO (mean ± sd): 393.18 (77.21) nmols/L
  Peak release NO/ONOO− (mean ± sd): 1.33 (0.42)
  Peak release ONOO− (mean ± sd): 317.60 (74.77) nmols/L
HUVECs Intron 4 variant c/c
  Net increase over control NO (mean ± sd): −98.67 (0) nmols/L
  Net increase over control NO/ONOO− (mean ± sd): −0.23 (0)
  Net increase over control ONOO− (mean ± sd): −2.67 (0) nmols/L
  Peak release NO (mean ± sd): 270.00 (0) nmols/L
  Peak release NO/ONOO− (mean ± sd): 0.64 (0)
  Peak release ONOO− (mean ± sd): 423.67 (0) nmols/L
HUVECs T-786C variant C/C
  % Change Ratio, % Change NO/% Change ONOO− (mean ± sd): −0.80 (1.04)
  Net increase over control NO (mean ± sd): 2.08 (39.61) nmols/L
  Net increase over control NO/ONOO− (mean ± sd): −0.48 (0.48)
  Net increase over control ONOO− (mean ± sd): 25.25 (135.63) nmols/L
  Peak release NO (mean ± sd): 334.25 (68.06) nmols/L
  Peak release NO/ONOO− (mean ± sd): 0.88 (0.50)
  Peak release ONOO− (mean ± sd): 430.17 (124.82) nmols/L
HUVECs T-786C variant T/C
  % Change Ratio, % Change NO/% Change ONOO− (mean ± sd): −1.06 (0.82)
  Net increase over control NO (mean ± sd): 46.77 (81.32) nmols/L
  Net increase over control NO/ONOO− (mean ± sd): −0.99 (0.94)
  Net increase over control ONOO− (mean ± sd): −61.09 (111.68) nmols/L
  Peak release NO (mean ± sd): 396.32 (73.63) nmols/L
  Peak release NO/ONOO− (mean ± sd): 1.35 (0.44)
  Peak release ONOO− (mean ± sd): 315.74 (78.13) nmols/L
[2]
  Net increase over control NO (mean ± sd): 40.15 (77.70) nmols/L
  Net increase over control NO/ONOO− (mean ± sd): −0.91 (0.90)
  Net increase over control ONOO− (mean ± sd): −48.30 (116.85) nmols/L
  Peak release NO (mean ± sd): 387.12 (75.01) nmols/L
  Peak release NO/ONOO− (mean ± sd): 1.28 (0.47)
  Peak release ONOO− (mean ± sd): 332.69 (93.16) nmols/L
HUVECs T-786C variant T/T
  % Change Ratio, % Change NO/% Change ONOO− (mean ± sd): 1.06 (9.40)
  Net increase over control NO (mean ± sd): 30.80 (64.85) nmols/L
  Net increase over control NO/ONOO− (mean ± sd): 0.77 (8.26)
  Net increase over control ONOO− (mean ± sd): −27.14 (82.12) nmols/L
  Peak release NO (mean ± sd): 380.73 (75.61) nmols/L
  Peak release NO/ONOO− (mean ± sd): 1.22 (0.43)
  Peak release ONOO− (mean ± sd): 335.82 (80.98) nmols/L
LA-419 5 μM (Table b2)
  ONOO− production versus control: decrease
[3]
  % Change NO (mean ± sd): 16.93 (4.34) %
  % Change NO/ONOO− (mean ± sd): 58.92 (16.01) %
  % Change ONOO− (mean ± sd): −25.30 (9.90) %
HUVEC donor Race Not Reported
  % Change NO (mean ± sd): 18.69 (5.53) %
  % Change NO/ONOO− (mean ± sd): 75.55 (20.43) %
  % Change ONOO− (mean ± sd): −31.56 (5.34) %
HUVEC donor alpha
  % Change NO (mean ± sd): 12.82 (5.82) %
  % Change NO/ONOO− (mean ± sd): 36.30 (14.59) %
  % Change ONOO− (mean ± sd): −16.43 (6.22) %
HUVEC donor beta
  % Change NO (mean ± sd): 14.30 (6.78) %
  % Change NO/ONOO− (mean ± sd): 39.65 (12.24) %
  % Change ONOO− (mean ± sd): −17.84 (5.90) %
HUVEC donor delta
  % Change NO (mean ± sd): 13.97 (0) %
  % Change NO/ONOO− (mean ± sd): 57.83 (0) %
  % Change ONOO− (mean ± sd): −27.79 (0) %
HUVEC donor gamma
  % Change NO (mean ± sd): 17.23 (7.65) %
  % Change NO/ONOO− (mean ± sd): 57.79 (12.24) %
  % Change ONOO− (mean ± sd): −25.17 (5.79) %
HUVECs G894T variant G/G
  % Change NO (mean ± sd): 15.93 (6.37) %
  % Change NO/ONOO− (mean ± sd): 47.91 (17.67) %
  % Change ONOO− (mean ± sd): −20.65 (7.38) %
HUVECs G894T variant G/T
  % Change NO (mean ± sd): 13.43 (6.31) %
  % Change NO/ONOO− (mean ± sd): 38.86 (13.20) %
  % Change ONOO− (mean ± sd): −17.85 (6.26) %
HUVECs G894T variant T/T
  % Change NO (mean ± sd): 11.67 (6.86) %
  % Change NO/ONOO− (mean ± sd): 39.03 (13.43) %
  % Change ONOO− (mean ± sd): −19.03 (8.40) %
HUVECs Intron 4 variant a/a
  % Change NO (mean ± sd): 13.60 (3.88) %
  % Change NO/ONOO− (mean ± sd): 36.75 (3.58) %
  % Change ONOO− (mean ± sd): −16.60 (3.31) %
